Experimental data from patent US20190134005A1 (BioMarin Pharmaceutical Inc., priority 2016, published 2019).

Target: T1, human CGT (Homo sapiens, UniProt Q16880)
T1 sequence (Q16880 21-541): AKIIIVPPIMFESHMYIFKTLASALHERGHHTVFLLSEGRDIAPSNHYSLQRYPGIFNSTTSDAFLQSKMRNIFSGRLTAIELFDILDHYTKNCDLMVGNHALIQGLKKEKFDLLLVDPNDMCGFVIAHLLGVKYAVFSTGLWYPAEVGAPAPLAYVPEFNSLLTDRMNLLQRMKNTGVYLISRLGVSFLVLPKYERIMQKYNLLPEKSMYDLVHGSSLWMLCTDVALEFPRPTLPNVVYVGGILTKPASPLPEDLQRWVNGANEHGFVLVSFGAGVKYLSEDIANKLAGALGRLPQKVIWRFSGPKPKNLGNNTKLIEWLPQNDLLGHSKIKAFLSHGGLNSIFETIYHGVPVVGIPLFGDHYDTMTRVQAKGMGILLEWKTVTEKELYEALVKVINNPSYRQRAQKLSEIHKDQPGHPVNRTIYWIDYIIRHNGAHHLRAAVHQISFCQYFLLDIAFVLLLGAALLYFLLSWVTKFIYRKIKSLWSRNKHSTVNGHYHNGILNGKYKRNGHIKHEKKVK
Assay: CGT Enzyme Assay (Biological Example 2, RapidFire/MS/MS method with 0.01% Tween 80 added)
Format: biochemical
Settings: enzymatic assay, CHO/CGT lysate
Protocol: Full-length human CGT cDNA was cloned into the BamH1/Xho1 site of pcDNA3.1 (+) mammalian expression vector (V90-20, Invitrogen, Carlsbad, Calif.) and the plasmid was transfected into Chinese hamster ovary (CHO) cells. Lysate was prepared using M-PER (Mammalian Protein Extraction Reagent, ThermoFisher Scientific, Grand Island, N.Y.) in the presence of a protease inhibitor cocktail (P8340, Sigma, Saint Louis, Mo.). Each 100 mm dish (100% confluent, approximately 1×10^7 cells) was lysed with 250 μL of M-PER containing protease inhibitors. Protein concentration was determined using a Pierce BCA protein assay kit (ThermoFisher Scientific). […] The final concentration of DMSO was 0.5% in both compound-treated and mock-treated samples. Each individual reaction was diluted with 80 μL of methanol:acetronitrile (1:3) containing 5 μM N-docdecanoyl-NBD-galactosylceramide (internal standard) to stop the reaction. 200 μL H2O:acetonitile (1:1) was added to precipitate the protein. After sufficient mixing, the plates were centrifuged at 2469 g for 38 minutes, 200 μl of supernatant was transferred to a LC-MS 96-deep well plate and a second spin was performed at 2469 g for 10 minutes. The final supernatant was injected in triplicate for RapidFire/MS/MS analysis.
The quantitative analysis of C6-NBD-dihydro-ceramide and C6-NBD-dihydro-galactosylceramide was performed on a Rapid Fire 360 high-throughput mass spectrometry system (Agilent Technologies, Palo Alto, Calif.) coupled with a API4000^+ triple quadrupole mass spectrometer (Applied Biosystems, Concord, Ontario, Canada). RapidFire software packages, including RapidFire Control panel, RapidFire UI and RapidFire Integrator (Agilent Technologies), were used to control the RapidFire instrument and to process data. Analyst 1.6.2 software packages (Applied Biosystems) were used to control the MS system and acquire MS data. 10 μL of sample was loaded on a micro-scale C4 solid-phase extraction (SPE) cartridge (Agilent Technologies) and salts were removed using water supplemented with 0.1% formic acid at the flow rate of 1.5 mL/min for 3 sec. C6-NBD-dihydro-ceramide and C6-NBD-dihydro-galactosylceramide were co-eluted into the mass spectrometer using acetonitrile containing 0.1% formic acid at the flow rate of 1.0 mL/min for 3 sec. The total cycle time of one injection was 8 secs. The MS/MS detection was performed in ESI negative mode.
The C6-NBD-dihydro-galactosylceramide reading was normalized first by dividing the peak area of C6-NBD-dihydro-galactosylceramide by the peak area of the internal standard, N-docdecanoyl-NBD-galactosylceramide.

| IC50 [µM] | Compound |
| --- | --- |
| < 1 | CCC[C@@]1(C)[C@H](c2cccc(OC(F)(F)F)c2)N(c2ccc(C#N)cc2)C(=O)N1c1ccc(C#N)cc1 [Example 52-5, 4,4′-((4S,5S)-4-methyl-2-oxo-4-propyl-5-(3-(trifluoromethoxy)phenyl)imidazolidine-1,3-diyl)dibenzonitrile] |
| 10 to 30 | CC1(C)[C@@H](c2cccc(OC(F)(F)F)c2)N(c2ccc(Cl)cc2)C(=O)N1c1ccc(C#N)cc1 [Example 41-1, (R)-4-(3-(4-chlorophenyl)-5,5-dimethyl-2-oxo-4-(3-(trifluoromethoxy)phenyl)imidazolidin-1-yl)benzonitrile] |
| 10 to 30 | CC1(C)[C@H](c2cccc(OC(F)(F)F)c2)N(c2ccc(C(F)(F)F)cc2)C(=O)N1c1ccc(C(F)(F)F)cc1 [Example 20-2, (S)-4,4-dimethyl-5-(3-(trifluoromethoxy)phenyl)-1,3-bis(4-(trifluoromethyl)phenyl)imidazolidin-2-one] |
| < 1 | CCC[C@@]1(C)[C@@H](c2cccc(C#N)c2)N(c2ccc(Cl)cc2)C(=O)N1c1ccc(Cl)cc1 [Example 33-4, 3-((4R,5S)-1,3-bis(4-chlorophenyl)-5-methyl-2-oxo-5-propylimidazolidin-4-yl)benzonitrile] |
| < 1 | CC1(C)[C@H](c2cccc(C#N)c2)N(c2ccc(Cl)cc2)C(=O)N1c1ccc(Cl)cc1 [Example 10-2, (S)-3-(1,3-bis(4-chlorophenyl)-5,5-dimethyl-2-oxoimidazolidin-4-yl)benzonitrile] |
| < 1 | CC1(C)[C@H](c2cccc(OC(F)(F)F)c2)N(c2ccc(Cl)cc2)C(=O)N1c1ccc(Cl)cc1 [Example 7-2, (S)-1,3-bis(4-chlorophenyl)-4,4-dimethyl-5-(3-(trifluoromethoxy)phenyl)imidazolidin-2-one] |
| 10 to 30 | Cc1ccc(N2C(=O)N(c3ccc(C#N)cc3)[C@H](c3cccc(C#N)c3)C23COC3)cc1 [Example 55-1, (R)-3-(7-(4-cyanophenyl)-6-oxo-5-(p-tolyl)-2-oxa-5,7-diazaspiro[3.4]octan-8-yl)benzonitrile] |
| 10 to 30 | C[C@H]1[C@H](c2cccc(OC(F)(F)F)c2)N(c2ccc(Cl)cc2)C(=O)N1c1ccc(Cl)cc1 [Example 4-1, (4S,5S)-1,3-bis(4-chlorophenyl)-4-methyl-5-(3-(trifluoromethoxy)phenyl)imidazolidin-2-one] |
| < 1 | C[C@@H]1[C@@H](c2ccccc2)N(c2ccc(Br)cc2)C(=O)N1c1ccc(Br)cc1 [Example 2-2, (4R,5R)-1,3-bis(4-bromophenyl)-4-methyl-5-phenylimidazolidin-2-one] |
| 10 to 30 | CC[C@]1(C)[C@H](c2cccc(C#N)c2)N(c2ccc(Cl)cc2)C(=O)N1c1ccc(Cl)cc1 [Example 34-4, 3-((4S,5R)-1,3-bis(4-chlorophenyl)-5-ethyl-5-methyl-2-oxoimidazolidin-4-yl)benzonitrile] |
| < 1 | C[C@H]1[C@H](c2cccc(OC(F)(F)F)c2)N(c2ccc(Br)cc2)C(=O)N1c1ccc(Br)cc1 [Example 11-2, (4S,5S)-1,3-bis(4-bromophenyl)-4-methyl-5-(3-(trifluoromethoxy)phenyl)imidazolidin-2-one] |
| 10 to 30 | O=C1N(c2ccc(Cl)cc2)[C@@H](c2cccc(OC(F)(F)F)c2)C2(CCCC2)N1c1ccc(Cl)cc1 [Example 15-3, (S)-1,3-bis(4-chlorophenyl)-4-(3-(trifluoromethoxy)phenyl)-1,3-diazaspiro[4.4]nonan-2-one] |
| 10 to 30 | CC1(C)[C@@H](c2cccc(C(F)(F)F)c2)N(c2ccc(Cl)cc2)C(=O)N1c1ccc(Cl)cc1 [Example 6-1, (R)-1,3-bis(4-chlorophenyl)-4,4-dimethyl-5-(3-(trifluoromethyl)phenyl)imidazolidin-2-one] |
| 10 to 30 | CCC[C@@]1(C)[C@H](c2cccc(OC(F)(F)F)c2)N(c2ccc(Cl)cc2)C(=O)N1c1ccc(Cl)cc1 [Example 22-5, (4S,5S)-1,3-bis(4-chlorophenyl)-4-methyl-4-propyl-5-(3-(trifluoromethoxy)phenyl)imidazolidin-2-one] |
| 1 to 10 | CC[C@]1(C)[C@@H](c2cccc(C#N)c2)N(c2ccc(Cl)cc2)C(=O)N1c1ccc(Cl)cc1 [Example 34-2, 3-((4R,5R)-1,3-bis(4-chlorophenyl)-5-ethyl-5-methyl-2-oxoimidazolidin-4-yl)benzonitrile] |
| < 1 | CC[C@]1(C)[C@H](c2cccc(OC(F)(F)F)c2)N(c2ccc(Cl)cc2)C(=O)N1c1ccc(Cl)cc1 [Example 19-2, (4R,5S)-1,3-bis(4-chlorophenyl)-4-ethyl-4-methyl-5-(3-(trifluoromethoxy)phenyl)imidazolidin-2-one] |
| 10 to 30 | CC1(C)[C@H](c2cccc(C#N)c2)N(c2ccc(C(F)(F)F)cc2)C(=O)N1c1ccc(C(F)(F)F)cc1 [Example 24-2, (S)-3-(5,5-dimethyl-2-oxo-1,3-bis(4-(trifluoromethyl)phenyl)imidazolidin-4-yl)benzonitrile] |
| < 1 | Cc1ccc(N2C(=O)N(c3ccc(C)cc3)C(C)(C)[C@@H]2c2cccc(OC(F)(F)F)c2)cc1 [Example 21-2, (S)-4,4-dimethyl-1,3-di-p-tolyl-5-(3-(trifluoromethoxy)phenyl)imidazolidin-2-one] |
| 10 to 30 | Cc1ccc(N2C(=O)N(c3ccc(Cl)cc3)[C@H](c3cccc(OC(F)(F)F)c3)C2(C)C)cc1 [Example 56-1, (R)-1-(4-chlorophenyl)-4,4-dimethyl-3-(p-tolyl)-5-(3-(trifluoromethoxy)phenyl)imidazolidin-2-one] |
| 10 to 30 | C[C@@H]1[C@@H](c2cccc(OC(F)(F)F)c2)N(c2ccc(Cl)cc2)C(=O)N1c1ccc(Cl)cc1 [Example 4-2, (4R,5R)-1,3-bis(4-chlorophenyl)-4-methyl-5-(3-(trifluoromethoxy)phenyl)imidazolidin-2-one] |
| 1 to 10 | CCC[C@]1(C)[C@H](c2cccc(C#N)c2)N(c2ccc(Cl)cc2)C(=O)N1c1ccc(Cl)cc1 [Example 33-3, 3-((4S,5R)-1,3-bis(4-chlorophenyl)-5-methyl-2-oxo-5-propylimidazolidin-4-yl)benzonitrile] |
| < 1 | CC1(C)[C@H](c2cccc(C(F)(F)F)c2)N(c2ccc(Cl)cc2)C(=O)N1c1ccc(Cl)cc1 [Example 6-2, (S)-1,3-bis(4-chlorophenyl)-4,4-dimethyl-5-(3-(trifluoromethyl)phenyl)imidazolidin-2-one] |
| 10 to 30 | O=C1N(c2ccc(Cl)cc2)[C@@H]2CCC[C@]2(c2cccc(OC(F)(F)F)c2)N1c1ccc(Cl)cc1 [Example 12-2, (3aR,6aR)-1,3-bis(4-chlorophenyl)-3a-(3-(trifluoromethoxy)phenyl)hexahydrocyclopenta[d]imidazol-2(1H)-one] |
| < 1 | Cc1ccc(N2C(=O)N(c3ccc(C#N)cc3)[C@H](c3cccc(OC(F)(F)F)c3)C2(C)C)cc1 [Example 50-1, (R)-4-(4,4-dimethyl-2-oxo-3-(p-tolyl)-5-(3-(trifluoromethoxy)phenyl)imidazolidin-1-yl)benzonitrile] |
| 1 to 10 | C[C@H]1[C@@H](c2ccccc2)N(c2ccc(Br)cc2)C(=O)N1c1ccc(Br)cc1 [Example 2-3, (4S,5R)-1,3-bis(4-bromophenyl)-4-methyl-5-phenylimidazolidin-2-one] |

| Compound | IC50 [µM] |
| --- | --- |
| O=C1N(c2ccc(Cl)cc2)[C@H]2CCC[C@@]2(c2cccc(OC(F)F)c2)N1c1ccc(Cl)cc1 [Example 23-1, (3aS,6aS)-1,3-bis(4-chlorophenyl)-3a-(3-(difluoromethoxy)phenyl)hexahydrocyclopenta[d]imidazol-2(1H)-one] | 10 to 30 |
| O=C1N(c2ccc(Cl)cc2)C2CCCCC2(c2cccc(OC(F)(F)F)c2)N1c1ccc(Cl)cc1 (stereo not drawn) [Example 15-1, 1,3-bis(4-chlorophenyl)-3a-(3-(trifluoromethoxy)phenyl)octahydro-2H-benzo[d]imidazol-2-one] | 10 to 30 |
